Where “and” joins values, the source holds several entries; their conditions need not be identical. Identical values can stand only once. Entries after “also recorded” stand apart in the source; their conditions may differ. Like-named read-outs stand apart in the source and are kept apart here. Where a SMILES comes first, the peptide text is derived from it. Bridges are numbered along the chain shown (N, C = ends). [ ]: non-standard residue; d: D form. The star is where a group is joined. Ileψ(thiazoline)Cys = CC[C@H](C)[C@H](N)C1=N[C@H](C(=O)*)CS1; dOrn = NCCC[C@@H](N)C(=O)O
Columns and labels:
[1] = system: transgenic plant cell cultures; assay: Effect of stabilizing agents and protease inhibitors on rAAT production in transgenic plant cell cultures; type: cell-based, Nicotiana benthamiana
Method: The effect of stabilizing agents (bacitracin, PVP, BSA, Pluronic F-68, and mannitol) and protease inhibitors (2-mercaptoethylamine-HCl, AEBSF, benzamidine-HCl and EDTA) on the rAAT production in transgenic plant cell cultures was also evaluated.

[2] = system: proteases in the cell cultured medium; assay: Effect of protease inhibitors and additives on human AAT degradation in cell-free CMViva conditioned medium; type: biochemical, Nicotiana benthamiana; conditions: for effect of protease inhibitor on human AAT degradation: 10 mM in 7 day old cell-free CMViva conditioned medium; for effect of medium additive on stabilizing functional human AAT: cell-free conditioned medium, data not shown
Method: (§1) For the investigation of human AAT stability in plant cell cultures, human AAT was added to the cell-free conditioned medium to a final concentration of 2 mg/L and distributed into 6-well-plates. The cell-free conditioned medium was prepared by centrifuging and filtering (through a 0.22 μm filter) the plant cells from 7 day old CMViva cell cultures (pH 5.1). Various protease inhibitors including 2-mercaptoethylamine-HCl (aminopeptidase inhibitor), AEBSF (serine and cysteine proteases inhibitor), benzamidine-HCl (serine protease inhibitor), and EDTA (a metal ion chelator and metalloproteinase inhibitor) were added to the conditioned medium to a final concentration of 10 mM to assess their ability to retard the degradation of human AAT. In another treatment, the conditioned medium was also heated (in boiling water for 30 minutes) or the medium pH was adjusted (from original pH 5.1 to 6.4˜6.6) prior to the addition of human AAT to investigate the human AAT stability. The 6-well-plates containing human AAT in various conditioned medium (4 mL/well) were incubated on an orbital shaker at 140 rpm and 25[…] under ambient light. Samples were taken daily and stored at −80° for further ELISA, western blotting and band shift analysis.

[3] = Method: as §1
N. benthamiana leaves = assay: Induction method study, total rAAT ELISA in intact or detached N. benthamiana leaves (CMViva + p19); type: in vivo, Nicotiana benthamiana
Method: (§2) Non-transgenic/wildtype N. benthamiana seedlings were grown from seed in soil-filled 10-cm pots. Seedlings were transplanted to individual 10-cm pots until plants were 10 to 15 cm in height, at which time plants were ready for infiltration. All plants were grown in a greenhouse with a 16-hour photoperiod and a temperature range of 18° C. (nighttime low) to 30° C. (daytime high). To prepare for evaluation of protein expression in detached leaves, plant leaves were cut at the petiole and stored dry in unsealed plastic bags for one hour before infiltration to simulate a situation where plants would be harvested from a field and transported to a facility for infiltration.
(§3) A. tumefaciens cells containing the appropriate plasmids were grown for 24 hours in 2 mL of Luria-Bertani (LB) broth containing appropriate selection antibiotics. Approximately 0.5 mL was then transferred to 25 mL of LB broth supplemented with 10 μL of 100 mM acetosyringone (3′, 5′-dimethoxy-4′-hydroxyacetophenone) (Aldrich Chemicals, Milwaukee, Wis.) and 0.5 ml of 1 M 2-(4-morpholino) ethanesulfonic acid (MES) buffer (pH 5.6), and grown overnight at 28° C. with shaking until the cell density (optical density, OD600) reached 1.0 absorbance units. Cells were harvested by centrifugation at 2600 g, resuspended in 10 mL of sterile de-ionized water, and the cell density was adjusted to 1.0 absorbance units. Five milliliters of the A. tumefaciens cell suspension for CMViva was mixed with 5 mL of A. tumefaciens cells containing the p35S:p19 plasmid, and then supplemented with magnesium chloride to reach a final concentration of 10 mM and acetosyringone to 150 µM, and incubated at room temperature for five hours. Bacterial suspensions were then pressure infiltrated onto the abaxial side of either intact or detached N. benthamiana leaves using a 3-mL sterile syringe without a needle at three to four points to sufficiently cover the entire leaf (approximately 1 mL of bacterial suspension per 0.5 g fresh weight of tissue). No A. tumefaciens solution was applied to plants selected as healthy control plants.
(§4) Intact plants that had been infiltrated were grown in the greenhouse for the duration of the experiment. Leaves that had been detached were stored in a humidity chamber following infiltration to maintain the health of the plant material. The humidity chamber was prepared by soaking 400 g of Perlite soil additive (E.B. Stone) in 1.5 L of de-ionized water. Excess water was decanted and the saturated Perlite was packed to form a 3-cm thick bed on the bottom of an 11.4 L rectangular Tupperware container. Plant leaves were then placed 7 cm above the Perlite bed on top of racks, and the chamber was then sealed and placed in the dark at 21° C. The humidity chamber was prepared five hours before infiltration to ensure a humid environment upon introduction of the plant leaves.
(§5) Twelve hours after infiltration, an induction solution composed of 50 μM 17-β-estradiol (Sigma Inc., St. Louis, Mo.) in 0.05% Tween 20 was applied to all infiltrated N. benthamiana leaves using either cotton tipped applicators to both sides of the leaves or a 3-mL sterile syringe without a needle pressure injected onto the abaxial side of the leaves. To evaluate the effect of multiple inducer applications, the induction solution was applied to half of the total number of infiltrated leaves in the same manner (directly after sampling) at 2-day (48±1 h) increments after the initial induction. No inducer solution was applied at any time to the healthy control plants.
(§6) Plant leaves were sampled on the infiltrated/induced areas 2 days (48±1 h) post-induction (60±1 h post-infiltration) by collecting two 7-mm diameter discs at various locations on each leaf and combining the discs to approximate an average leaf sample. Three leaves from different plants were sampled for analysis of intact plant leaves and four leaves were used for analysis of detached plant leaves. […]

[4] = system: porcine pancreatic elastase (PPE); assay: Induction method study, functional rAAT ELISA in intact or detached N. benthamiana leaves (CMViva + p19); type: biochemical
Method: as §2, §3, §4, §5, §6

[5] = transgenic plant cell cultures, data not shown
[6] = 5 day incubation, fresh sterile KCMS medium, pH 5.8
[7] = detached leaves, single pressure injection
[8] = intact leaves, single pressure injection
[9] = intact leaves, single topical application, four days after induction

Compound: Cl.NCCS [2-mercaptoethylamine-HCl]
- effect on total and functional rAAT production [1, 5]: no significant improvement
- effect of protease inhibitor on human AAT degradation [2]: slightly inhibit human AAT degradation

Compound: NCCc1ccc(S(=O)(=O)F)cc1 [AEBSF]
- effect on total and functional rAAT production [1, 5]: no significant improvement
- effect of protease inhibitor on human AAT degradation [2]: highest ability to stabilize functional human AAT levels; also recorded: slightly inhibit human AAT degradation

Compound: O=C(O)CN(CCN(CC(=O)O)CC(=O)O)CC(=O)O [EDTA]
- effect on total and functional rAAT production [1]: no significant improvement

Compound: CC[C@H](C)[C@H](N)C1=N[C@H](C(=O)N[C@@H](CC(C)C)C(=O)N[C@H](CCC(=O)O)C(=O)N[C@H](C(=O)N[C@H]2CCCCNC(=O)[C@H](CC(N)=O)NC(=O)[C@@H](CC(=O)O)NC(=O)[C@H](Cc3cnc[nH]3)NC(=O)[C@@H](Cc3ccccc3)NC(=O)[C@H]([C@@H](C)CC)NC(=O)[C@@H](CCCN)NC2=O)[C@@H](C)CC)CS1 [bacitracin] ({Ileψ(thiazoline)Cys}-L[dE]IK[dOrn]I[dF]H[dD]N; lactam 4-C)
- effect on total and functional rAAT production [1, 5]: no significant improvement
- effect of medium additive on stabilizing functional human AAT [2]: did not show significant effect

Compound: Cl.N=C(N)c1ccccc1 [benzamidine-HCl]
- effect on total and functional rAAT production [1, 5]: no significant improvement

Compound: OC[C@@H](O)[C@@H](O)[C@H](O)[C@H](O)CO [mannitol]
- effect on total and functional rAAT production [1, 5]: no significant improvement
- effect of medium additive on stabilizing functional human AAT [2]: did not show significant effect

Compound: human AAT: commercially available human AAT (Calbiochem) used as standard and spiked into media
- decline of total human AAT ([3]; 5 day incubation, 7 day old cell-free CMViva culture medium, pH about 5.0): 60%
- decline of functional human AAT [3, 6]: ~50%
- decline of total human AAT [3, 6]: about 25%
- decline of total human AAT ([3]; 5 day period, CMViva culture medium adjusted to pH 6.4): about 25%
- functionality of human AAT ([3]; 11 day-old cell-free CMViva medium adjusted to pH 4-5): accelerates the loss of functionality
- functionality of human AAT ([3]; 11 day-old cell-free CMViva medium adjusted to pH 7-8): maintains the functionality
- functional human AAT as % of the initial concentration ([3]; after 5 days, heated CMViva culture medium): 70%
- functional human AAT level ([3]; within 2 days, 7 day old cell-free CMViva culture medium, pH about 5.0): negligible

Compound: rAAT: recombinant α1-antitrypsin, a human blood protein, produced in N. benthamiana
- maximum total rAAT (N. benthamiana leaves; detached leaves, multiple topical applications): 3.5±0.15 % of TSP
- total rAAT (N. benthamiana leaves; [7]): 2.4±0.18 % of TSP
- maximum total rAAT (N. benthamiana leaves; detached leaves, single topical application): 2.5±0.08 % of TSP
- maximum total rAAT (N. benthamiana leaves; intact leaves, multiple pressure injections, 6 days after induction): 5.8±0.46 % of TSP
- increase of total rAAT, multiple compared to single treatment (N. benthamiana leaves; intact leaves, pressure injection): 57%
- total rAAT (N. benthamiana leaves; [8]): 3.7±0.31 % of TSP
- total rAAT (N. benthamiana leaves; [9]): 1.4±0.17 % of TSP
- maximum total rAAT (N. benthamiana leaves; intact leaves, single topical application, six days after induction): 1.9±0.15 % of TSP
- increase of total rAAT, multiple compared to single treatment (N. benthamiana leaves; intact leaves, topical application): 120%
- more total rAAT, single pressure injection compared to single topical application (N. benthamiana leaves; intact plants): 95%
- maximum total rAAT in detached leaves above that in intact leaves (N. benthamiana leaves; single topical application): 0.6 % of TSP
- functional rAAT higher with single pressure injection than single topical application ([4]; detached leaves): 80%
- increase of maximum functional rAAT, inducer applied topically every two days ([4]; detached leaves): 1.8 fold
- maximum percentage of functional rAAT to total rAAT ([4]; detached leaves, injection method, two days after induction): 85-87%
- functional rAAT ([4]; detached leaves, multiple topical applications, four days post induction): 1.3±0.05 % of TSP
- functional rAAT [4, 7]: 1.3±0.06 % of TSP
- functional rAAT ([4]; detached leaves, single topical application, four days post induction): 0.71±0.04 % of TSP
- maximum percentage of functional rAAT to total rAAT ([4]; detached leaves, topical application, two days after induction): 55-65%
- increase of maximum functional rAAT, multiple pressure injections compared to single topical application ([4]; intact leaves): up to 3 fold
- percentage of total rAAT that is functional ([4]; intact leaves, eighth day after induction, any of the treatments): less than 15%
- maximum functional rAAT ([4]; intact leaves, multiple pressure injections): 2.4±0.09 % of TSP
- maximum functional rAAT ([4]; intact leaves, multiple topical applications): 1.6±0.08 % of TSP
- percentage of total rAAT that is functional ([4]; intact leaves, pressure injection, two days after induction): 83-90% and > 85%
- maximum functional rAAT [4, 8]: 1.8±0.09 % of TSP
- maximum functional rAAT [4, 9]: 0.80±0.04 % of TSP
- functional rAAT still present as % of the maximum level ([4]; intact leaves, six days after induction, single induction treatment): less than 40%
- more functional rAAT, single pressure injection compared to single topical application ([4]; intact plants): 125%
- functional rAAT in detached leaves less than in intact leaves ([4]; multiple topical applications, four days post induction): 0.3 % of TSP
- functional rAAT in detached leaves less than in intact leaves ([4]; single topical application, four days post induction): 0.09 % of TSP

Reference: patent publication US10421973B2, “Chemically inducible cucumber mosaic virus protein expression system” (THE REGENTS OF THE UNIVERSITY OF CALIFORNIA, priority 2006, dated 2019)
